Experimental data from publication PMC7059037, “Development of 1,2,4-Triazole-5-Thione Derivatives as Potential Inhibitors of Enoyl Acyl Carrier Protein Reductase (InhA) in Tuberculosis” (Iranian Journal of Pharmaceutical Research : IJPR, 2019).
Values after ≈ are worked out from the molar mass of the structure shown. Read-outs that look alike come from different tables or passages of the source.

How the values were obtained:
[1] = target: Mtb InhA (enoyl acyl carrier protein reductase) (Mycobacterium tuberculosis, UniProt P9WGR1); assay: Mtb InhA enzyme inhibition assay (fluorescence based); type: biochemical
Description: Mtb InhA enzyme inhibition assay (Fluorescence based assay)
The compounds were dissolved in 100% dimethyl sulfoxide (DMSO). […] The 50μL enzyme reaction contained PIPES- 30 mM, pH 7.5, NaCl - 50 mM, 0.005% Brij-35, DTT - 2mM, and EDTA- 0.1mM. The enzyme reaction was started by the addition of […] of dodecyl CoA synthesized in-house and the depletion of NADH was followed by measuring the fluorescence of NADH kinetically in the reaction for 30min at excitation at 340nm and emission at 420nm using Tecan Saffire II reader. The concentration at which 50% inhibition in enzyme activity was observed was reported as the IC50.

Mtb H37Rv strain = assay: Mtb H37Rv assay, resazurin microtiter-based assay (REMA); type: cell-based, Mycobacterium tuberculosis; conditions: REMA plate method, 90% inhibition with respect to growth control
[2] = read-out: InhA IC50, InhA 1.25 nM, 0.050 mM NADH, NADH fluorescence

Sequence of Mtb InhA (enoyl acyl carrier protein reductase) (P9WGR1 whole entry, looked up): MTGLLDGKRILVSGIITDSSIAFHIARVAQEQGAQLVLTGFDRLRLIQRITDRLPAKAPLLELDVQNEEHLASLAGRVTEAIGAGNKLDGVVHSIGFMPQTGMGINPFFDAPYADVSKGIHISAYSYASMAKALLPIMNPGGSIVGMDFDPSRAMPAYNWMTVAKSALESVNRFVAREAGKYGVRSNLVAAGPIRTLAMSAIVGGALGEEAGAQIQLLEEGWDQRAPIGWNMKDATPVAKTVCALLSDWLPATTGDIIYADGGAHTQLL

Compound	melting point [°C]	IC50 [1, 2] [µM]	MIC (Mtb H37Rv strain; Mycobacterium tuberculosis) [µM]	IC50 [1] [µM]	MIC (Mtb H37Rv strain) [µM]
Nn1c(-c2ccncc2)nn(CC(=O)Nc2ccccc2)c1=S [Compound 6a, 2-(4-Amino-3-pyridin-4-yl-5-thioxo-4,5-dihydro-[1,2,4]triazol-1-yl)-N-phenyl acetamide]	242 to 244	0.68	12.5 (≈ 4.08 µg/mL)	–	–
Cc1ccc(NC(=O)Cn2nc(-c3ccncc3)n(N)c2=S)cc1 [Compound 6b, 2-(4-amino-3-(pyridin-4-yl)-5-thioxo-4,5-dihydro-1H-1,2,4-triazol-1-yl)-N-(p-tolyl)acetamide]	237 to 238	–	0.19 (≈ 0.0647 µg/mL)	0.09	0.19 (≈ 0.0647 µg/mL)
Nn1c(-c2ccncc2)nn(CC(=O)Nc2ccc(Br)cc2F)c1=S [Compound 6c, 2-(4-amino-3-(pyridin-4-yl)-5-thioxo-4,5-dihydro-1H-1,2,4-triazol-1-yl)-N-(4-bromo-2-fluorophenyl)acetamide]	276 to 278	–	3.12 (≈ 1.32 µg/mL)	6.15	–
COc1ccc(NC(=O)Cn2nc(-c3ccncc3)n(N)c2=S)cc1 [Compound 6d, 2-(4-Amino-3-(pyridin-4-yl)-5-thioxo-4,5-dihydro-1H[1,2,4]triazol-1-yl)-N-(4-methoxyphenyl) acetamide]	256 to 258	10.8	25 (≈ 8.91 µg/mL)	–	–
Nn1c(-c2ccncc2)nn(CC(=O)Nc2cccc(C(F)(F)F)c2)c1=S [Compound 6e, 2-(4-Amino-3-(pyridin-4-yl)-5-thioxo-4,5-dihydro-1H[1,2,4]triazol-1-yl)-N-(3-trifluoromethylphenyl) acetamide]	242 to 244	5.95	12.5 (≈ 4.93 µg/mL)	–	–
Nn1c(-c2ccncc2)nn(CC(=O)Nc2ccc(Cl)cc2)c1=S [Compound 6f, 2-(4-Amino-(3-pyridin-4-yl)-5-thioxo-4,5-dihydro-1H[1,2,4]triazol-1-yl)-N-(4-chlorophenyl) acetamide]	218 to 220	1.2	12.5 (≈ 4.51 µg/mL)	–	–
Cc1ccc(NC(=O)Cn2nc(-c3ccncc3)n(N)c2=S)cc1C [Compound 6g, 2-(4-Amino-(3-pyridin-4-yl)-5-thioxo-4,5-dihydro-1H[1,2,4]triazol-1-yl)-N-(3,4-dimethylphenyl) acetamide]	242 to 244	0.19	0.39 (≈ 0.138 µg/mL)	–	–
Cc1ccc(NC(=O)Cn2nc(-c3ccncc3)n(N)c2=S)cc1Cl [Compound 6h, 2-(4-Amino-(3-pyridin-4-yl)-5-thioxo-4,5-dihydro-1H[1,2,4]triazol-1-yl)-N-(3-chloro-4-methylphenyl) acetamide]	214 to 216	0.34	6.25 (≈ 2.34 µg/mL)	–	–
Cc1cccc(NC(=O)Cn2nc(-c3ccncc3)n(N)c2=S)c1 [Compound 6i, 2-(4-Amino-(3-pyridin-4-yl)-5-thioxo-4,5-dihydro-1H[1,2,4]triazol-1-yl)-N-(3-methylphenyl)acetamide]	225 to 227	–	0.39 (≈ 0.133 µg/mL)	0.12	–
Nn1c(-c2ccncc2)nn(CC(=O)Nc2cccc(Cl)c2)c1=S [Compound 6j, 2-(4-Amino-(3-pyridin-4-yl)-5-thioxo-4,5-dihydro-1H[1,2,4]triazol-1-yl)-N-(3-chlorophenyl) acetamide]	220 to 222	3.1	6.25 (≈ 2.26 µg/mL)	–	–
Nn1c(-c2ccncc2)nn(CC(=O)Nc2cc(C(F)(F)F)ccc2Cl)c1=S [Compound 6k, 2-(4-Amino-(3-pyridin-4-yl)-5-thioxo-4,5-dihydro-1H[1,2,4]triazol-1-yl)-N-(2-chloro-5-trifluoromethylphenyl) acetamide]	184 to 186	–	–	–	–
COc1cccc(NC(=O)Cn2nc(-c3ccncc3)n(N)c2=S)c1 [Compound 6l, 2-(4-Amino-(3-pyridin-4-yl)-5-thioxo-4,5-dihydro-1H[1,2,4]triazol-1-yl)-N-(3-methoxyphenyl) acetamide]	222 to 224	–	–	–	–
Nn1c(-c2ccncc2)nn(CC(=O)Nc2ccc(F)cc2)c1=S [Compound 6m, 2-(4-Amino-(3-pyridin-4-yl)-5-thioxo-4,5-dihydro-1H[1,2,4]triazol-1-yl)-N-(4-fluorophenyl) acetamide]	227 to 229	–	–	–	–
Nn1c(-c2ccncc2)nn(CC(=O)Nc2ccc(C(F)(F)F)cc2)c1=S [Compound 6n, 2-(4-Amino-(3-pyridin-4-yl)-5-thioxo-4,5-dihydro-1H[1,2,4]triazol-1-yl)-N-(4-trifluoromethylphenyl) acetamide]	227 to 229	–	–	–	–
Nn1c(-c2ccncc2)nn(CC(=O)Nc2ccccn2)c1=S [Compound 6o, 2-(4-Amino-(3-pyridin-4-yl)-5-thioxo-4,5-dihydro-1H[1,2,4]triazol-1-yl)-N-pyridin-2-yl acetamide]	212 to 214	76	100 (≈ 32.7 µg/mL)	–	–
Cc1cccc(NC(=O)Cn2nc(-c3ccncc3)n(N)c2=S)n1 [Compound 6p, 2-(4-Amino-(3-pyridin-4-yl)-5-thioxo-4,5-dihydro-1H[1,2,4]triazol-1-yl)-N-(6-methylpyridin-2-yl) acetamide]	230 to 232	86	100 (≈ 34.1 µg/mL)	–	–
Cc1ccnc(NC(=O)Cn2nc(-c3ccncc3)n(N)c2=S)c1 [Compound 6q, 2-(4-Amino-(3-pyridin-4-yl)-5-thioxo-4,5-dihydro-1H[1,2,4]triazol-1-yl)-N-(4-methylpyridin-2-yl) acetamide]	217 to 219	–	–	–	–
Nn1c(-c2ccncc2)nn(CC(=O)Nc2ncccn2)c1=S [Compound 6r, 2-(4-Amino-(3-pyridin-4-yl)-5-thioxo-4,5-dihydro-1H[1,2,4]triazol-1-yl)-N-pyrimidin-2-yl acetamide]	205 to 207	–	–	–	–
Cc1cc(NC(=O)Cn2nc(-c3ccncc3)n(N)c2=S)no1 [Compound 6s, 2-(4-Amino-(3-pyridin-4-yl)-5-thioxo-4,5-dihydro-1H[1,2,4]triazol-1-yl)-N-(5-methylisoxazol-3-yl) acetamide]	242 to 244	–	–	–	–
Cc1cccc2sc(NC(=O)Cn3nc(-c4ccncc4)n(N)c3=S)nc12 [Compound 6t, 2-(4-Amino-(3-pyridin-4-yl)-5-thioxo-4,5-dihydro-1H[1,2,4]triazol-1-yl)-N-(4-methylbenzothiazol-3-yl) acetamide]	243 to 245	–	–	–	–
Nn1c(-c2ccncc2)nn(CC(=O)Nc2nccs2)c1=S [Compound 6u, 2-(4-Amino-(3-pyridin-4-yl)-5-thioxo-4,5-dihydro-1H[1,2,4]triazol-1-yl)-N-thiazol-2-yl acetamide]	253 to 255	–	–	–	–
Cc1cnc(NC(=O)Cn2nc(-c3ccncc3)n(N)c2=S)s1 [Compound 6v, 2-(4-Amino-(3-pyridin-4-yl)-5-thioxo-4,5-dihydro-1H[1,2,4]triazol-1-yl)-N-(5-methylthiazol-2-yl) acetamide]	250 to 252	–	–	–	–
O=C(Cn1nc(-c2ccncc2)oc1=S)Nc1ccccn1 [Compound 7a, 2-(5-pyridin-4-yl-2-thioxo-[1,3,4]oxadiazol-3-yl)-N-pyridin-2-yl acetamide]	216 to 218	–	–	–	–
Cc1cc(NC(=O)Cn2nc(-c3ccncc3)oc2=S)no1 [Compound 7b, N-(5-methylisoxazol-3-yl)-2-(5-(pyridin-4-yl)-2-thioxo-1,3,4-oxadiazol-3(2H)-yl)acetamide]	232 to 234	–	50 (≈ 15.9 µg/mL)	24	–
O=C(Cn1nc(-c2ccncc2)oc1=S)Nc1nccs1 [Compound 7c, 2-(5-pyridin-4-yl-2-thioxo-[1,3,4]oxadiazol-3-yl)-N-thiazol-2-yl acetamide]	244 to 246	–	–	–	–
Cc1cnc(NC(=O)Cn2nc(-c3ccncc3)oc2=S)s1 [Compound 7d, N-(5-methylthiazol-2-yl)-2-(5-(pyridin-4-yl)-2-thioxo-1,3,4-oxadiazol-3(2H)-yl)acetamide]	236 to 238	–	100 (≈ 33.3 µg/mL)	67	–
O=C(Cn1nc(-c2ccncc2)oc1=S)Nc1ncc([N+](=O)[O-])s1 [Compound 7e, N-(5-nitrothiazol-2-yl)-2-(5-(pyridin-4-yl)-2-thioxo-1,3,4-oxadiazol-3(2H)-yl)acetamide]	254 to 256	–	100 (≈ 36.4 µg/mL)	82	–
O=C(Cn1nc(-c2ccncc2)oc1=S)Nc1nc2ccccc2s1 [Compound 7f, 2-(5-pyridin-4-yl-2-thioxo-[1,3,4]oxadiazol-3-yl)-N-benzothiazol-2-yl acetamide]	206 to 208	–	–	–	–
CCOc1ccc2nc(NC(=O)Cn3nc(-c4ccncc4)oc3=S)sc2c1 [Compound 7g, N-(6-ethoxybenzo[d]thiazol-2-yl)-2-(5-(pyridin-4-yl)-2-thioxo-1,3,4-oxadiazol-3(2H)-yl)acetamide]	252 to 254	–	> 100	> 100	–
NNC(=O)c1ccncc1 [INH, isoniazid, reference compound]	–	–	0.05 (≈ 0.00686 µg/mL)	–	–
